Experimental findings from patent EP4810052A2, “HCRHR2 SELECTIVE POLYPEPTIDES” (Gubra A/S, priority 2023, dated 2026) are described below.

Read-outs that look alike come from different tables or passages of the source. Starred links: 1 amine or outer side, 2 acyl side, 3 side chain; linkers in the order of their positions; H or OH if unused. Non-standard residues stand in square brackets, D forms with d. Residues, ends and D or L forms follow the SMILES beside them. Groups on a side chain read outwards from the residue. *: point of attachment. C20 diacid = O=C(O)CCCCCCCCCCCCCCCCCCC(=O)*; γGlu = O=C(O)[C@H](CCC(=O)[*:2])N[*:1]; NMeI = CC[C@H](C)[C@H](NC)C(=O)O; Nle = CCCC[C@H](N)C(=O)O; Ac5c = NC1(C(=O)O)CCCC1; AEEA = NCCOCCOCC(=O)O; Aib = CC(C)(N)C(=O)O

Test [1] deals with T1, hCRHR1 (Homo sapiens, UniProt P34998).
T1 sequence (P34998 24-415): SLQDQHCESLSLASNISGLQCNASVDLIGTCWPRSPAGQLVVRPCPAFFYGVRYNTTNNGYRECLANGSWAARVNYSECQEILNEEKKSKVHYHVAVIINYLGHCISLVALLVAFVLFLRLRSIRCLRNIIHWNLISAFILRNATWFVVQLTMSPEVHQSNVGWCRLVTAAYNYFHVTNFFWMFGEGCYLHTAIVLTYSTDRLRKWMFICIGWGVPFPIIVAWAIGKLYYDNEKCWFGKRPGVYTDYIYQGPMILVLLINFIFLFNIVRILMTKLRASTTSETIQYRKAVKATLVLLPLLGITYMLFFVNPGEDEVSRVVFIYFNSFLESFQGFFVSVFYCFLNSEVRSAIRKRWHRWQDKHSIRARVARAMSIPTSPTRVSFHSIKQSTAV
The experiment in a line: HTRF cAMP assay, determination of hCRHR1 potency (peptide libraries 5 conc., purified peptides 11 conc.). The class given is cell-based. The gist of the method: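 Cellular cAMP was read by time-resolved FRET between d2-labelled cAMP and cryptate anti-cAMP antibody. The cells were freshly thawed suspension CHO-K1 cells stably expressing human CRHR1.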

Test [2] deals with T2, hCRHR2 (Homo sapiens, UniProt Q13324).
T2 sequence (Q13324 1-411): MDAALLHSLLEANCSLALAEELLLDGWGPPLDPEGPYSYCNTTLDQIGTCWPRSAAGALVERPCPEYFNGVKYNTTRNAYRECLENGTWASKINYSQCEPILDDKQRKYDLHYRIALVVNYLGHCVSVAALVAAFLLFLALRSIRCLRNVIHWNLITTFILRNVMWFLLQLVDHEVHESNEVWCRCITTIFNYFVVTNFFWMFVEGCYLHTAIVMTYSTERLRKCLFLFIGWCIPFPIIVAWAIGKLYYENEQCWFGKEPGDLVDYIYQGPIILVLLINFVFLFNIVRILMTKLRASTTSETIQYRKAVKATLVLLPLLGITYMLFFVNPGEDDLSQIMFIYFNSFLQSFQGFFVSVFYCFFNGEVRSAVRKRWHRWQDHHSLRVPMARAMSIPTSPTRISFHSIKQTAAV
The experiment in a line: HTRF cAMP assay, determination of hCRHR2 potency (peptide libraries 5 conc., purified peptides 11 conc.). The class given is cell-based. The method, boiled down:
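Frozen stocks of hCRHR2-expressing CHO-K1 cells, thawed just before testing, received peptide agonists in suspension; cAMP quantified by competitive HTRF immunoassay, with curves fitted by nonlinear regression (variable slope) for EC50.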

Where [3] appears, read: library peptides, matched molecular pairs L vs Nle in position X^38, read-out: Potency hCRHR1 pEC50 (converted).
Setting [4] is: library peptides, matched molecular pairs L vs Nle in position X^38, read-out: Potency hCRHR2 pEC50 (converted).
[5] abbreviates: Table 4, library peptides having X^38 = Nle, read-out: hCRHR1 pEC50 (converted).
Where [6] appears, read: Table 4, library peptides having X^38 = Nle, read-out: hCRHR2 pEC50 (converted).

`CCCC[C@H](NC(=O)[C@@H](NC(=O)[C@H](CCC(=O)O)NC(=O)[C@H](C)NC(=O)[C@H](CC(N)=O)NC(=O)[C@@H](NC(=O)[C@H](CCCCNC(=O)COCCOCCNC(=O)COCCOCCNC(=O)CC[C@H](NC(=O)CC[C@H](NC(=O)CCCCCCCCCCCCCCCCCCC(=O)O)C(=O)O)C(=O)O)NC(=O)[C@H](C)NC(=O)[C@H](CCC(N)=O)NC(=O)[C@H](CCC(=O)O)NC(=O)[C@H](CCCNC(=N)N)NC(=O)[C@H](C)NC(=O)[C@H](CO)NC(=O)[C@H](CCCNC(=N)N)NC(=O)[C@H](C)NC(=O)[C@H](CCCNC(=N)N)NC(=O)[C@H](C)NC(=O)[C@H](CCC(N)=O)NC(=O)[C@H](CCC(=O)O)NC(=O)[C@H](CC(C)C)NC(=O)[C@H](CC(C)C)NC(=O)[C@@H](NC(=O)[C@H](CCC(N)=O)NC(=O)[C@H](CC(C)C)NC(=O)[C@H](CC(C)C)NC(=O)CNC(=O)[C@@H](NC(=O)[C@@H]1CCCN1C(=O)[C@@H](NC(=O)[C@H](CC(=O)O)NC(=O)[C@H](CC(C)C)NC(=O)[C@H](CO)NC(=O)[C@H](CC(C)C)NC(=O)[C@@H](NC(=O)[C@@H](N)[C@@H](C)CC)C(C)C)C(C)C)[C@@H](C)CC)[C@@H](C)CC)[C@@H](C)O)[C@@H](C)CC)C(=O)N[C@@H](C)C(=O)N[C@@H](CCC(=O)O)C(=O)N[C@H](C(N)=O)C(C)C` [compound 61] (H-IVLSLDVPIGLLQILLEQARARSAREQAK([AEEA-AEEA-γGlu-γGlu-C20 diacid])TNAEI[Nle]AEV-NH2): the EC50 in test [1] (setting [3]) was 1260 nM; in test [2] (setting [4]), 0.1 nM.
In the case of `CC[C@H](C)[C@H](N)C(=O)N[C@H](C(=O)N[C@@H](CC(C)C)C(=O)N[C@@H](CO)C(=O)N[C@@H](CC(C)C)C(=O)N[C@@H](CC(=O)O)C(=O)NC1(C(=O)N2CCC[C@H]2C(=O)N[C@H](C(=O)NCC(=O)N[C@@H](CC(C)C)C(=O)N[C@@H](CC(C)C)C(=O)N[C@@H](CCC(N)=O)C(=O)N[C@H](C(=O)N[C@@H](CC(C)C)C(=O)N[C@@H](CC(C)C)C(=O)N[C@@H](CCC(=O)O)C(=O)N[C@@H](CCC(N)=O)C(=O)N[C@@H](C)C(=O)N[C@@H](CCCNC(=N)N)C(=O)N[C@@H](C)C(=O)N[C@@H](CCCNC(=N)N)C(=O)N[C@@H](CCC(N)=O)C(=O)N[C@@H](C)C(=O)N[C@@H](CCCNC(=N)N)C(=O)N[C@@H](CCC(=O)O)C(=O)N[C@@H](CCC(N)=O)C(=O)N[C@@H](C)C(=O)N[C@@H](CCCCNC(=O)COCCOCCNC(=O)COCCOCCNC(=O)CC[C@H](NC(=O)CC[C@H](NC(=O)CCCCCCCCCCCCCCCCCCC(=O)O)C(=O)O)C(=O)O)C(=O)N[C@H](C(=O)N[C@@H](CC(N)=O)C(=O)N[C@@H](C)C(=O)N[C@@H](CCC(=O)O)C(=O)N[C@H](C(=O)N[C@@H](CC(C)C)C(=O)N[C@@H](C)C(=O)N[C@@H](CCC(=O)O)C(=O)N[C@H](C(N)=O)C(C)C)[C@@H](C)CC)[C@@H](C)O)[C@@H](C)CC)[C@@H](C)CC)CCCC1)C(C)C` [compound 78] (H-IVLSLD[Ac5c]PIGLLQILLEQARARQAREQAK([AEEA-AEEA-γGlu-γGlu-C20 diacid])TNAEILAEV-NH2), the results for the EC50 in test [1] (setting [3]) and in test [2] (setting [4]) were 7.94 nM and 0.398 nM, respectively.
Regarding `CCCC[C@H](NC(=O)[C@@H](NC(=O)[C@H](CCC(=O)O)NC(=O)[C@H](C)NC(=O)[C@H](CC(N)=O)NC(=O)C(C)(C)NC(=O)[C@H](CCCCNC(=O)COCCOCCNC(=O)COCCOCCNC(=O)CC[C@H](NC(=O)CC[C@H](NC(=O)CCCCCCCCCCCCCCCCCCC(=O)O)C(=O)O)C(=O)O)NC(=O)[C@H](C)NC(=O)[C@H](CCC(N)=O)NC(=O)[C@H](CCC(=O)O)NC(=O)[C@H](CCCNC(=N)N)NC(=O)[C@H](C)NC(=O)[C@H](C)NC(=O)[C@H](CCCNC(=N)N)NC(=O)[C@H](C)NC(=O)[C@H](CCCNC(=N)N)NC(=O)[C@H](C)NC(=O)[C@H](CCC(N)=O)NC(=O)[C@H](CC(C)C)NC(=O)[C@H](CC(C)C)NC(=O)[C@H](CC(C)C)NC(=O)[C@@H](NC(=O)[C@H](CCC(N)=O)NC(=O)[C@H](CC(C)C)NC(=O)[C@H](CC(C)C)NC(=O)CNC(=O)[C@@H](NC(=O)[C@@H]1CCCN1C(=O)[C@@H](NC(=O)[C@H](CC(=O)O)NC(=O)[C@H](CC(C)C)NC(=O)[C@H](CO)NC(=O)[C@H](CC(C)C)NC(=O)[C@@H](NC(=O)[C@@H](NC)[C@@H](C)CC)C(C)C)C(C)C)[C@@H](C)CC)[C@@H](C)CC)[C@@H](C)CC)C(=O)N[C@@H](C)C(=O)N[C@@H](CCC(=O)O)C(=O)N[C@H](C(N)=O)C(C)C` [compound 235] (H-[NMeI]VLSLDVPIGLLQILLLQARARAAREQAK([AEEA-AEEA-γGlu-γGlu-C20 diacid])[Aib]NAEI[Nle]AEV-NH2), the EC50 in test [1] (setting [5]) was 158000 nM; in test [2] (setting [6]), 0.126 nM.
In the case of `CCCC[C@H](NC(=O)[C@@H](NC(=O)[C@H](CCC(=O)O)NC(=O)C(C)(C)NC(=O)[C@H](CC(N)=O)NC(=O)[C@@H](NC(=O)[C@H](CCCCNC(=O)COCCOCCNC(=O)COCCOCCNC(=O)CC[C@H](NC(=O)CC[C@H](NC(=O)CCCCCCCCCCCCCCCCCCC(=O)O)C(=O)O)C(=O)O)NC(=O)[C@H](C)NC(=O)[C@H](CCC(N)=O)NC(=O)[C@H](CCC(=O)O)NC(=O)[C@H](CCCNC(=N)N)NC(=O)[C@H](C)NC(=O)[C@H](C)NC(=O)[C@H](CCCNC(=N)N)NC(=O)[C@H](C)NC(=O)[C@H](CCCNC(=N)N)NC(=O)[C@H](C)NC(=O)[C@H](CCC(N)=O)NC(=O)[C@H](CC(C)C)NC(=O)[C@H](CC(C)C)NC(=O)[C@H](CC(C)C)NC(=O)[C@@H](NC(=O)[C@H](CCC(N)=O)NC(=O)[C@H](CC(C)C)NC(=O)[C@H](CC(C)C)NC(=O)CNC(=O)[C@@H](NC(=O)[C@@H]1CCCN1C(=O)[C@@H](NC(=O)[C@H](CC(=O)O)NC(=O)[C@H](CC(C)C)NC(=O)[C@H](CO)NC(=O)[C@H](CC(C)C)NC(=O)[C@@H](NC(=O)[C@@H](NC)[C@@H](C)CC)C(C)C)C(C)C)[C@@H](C)CC)[C@@H](C)CC)[C@@H](C)O)[C@@H](C)CC)C(=O)N[C@@H](C)C(=O)N[C@@H](CCC(=O)O)C(=O)N[C@H](C(N)=O)C(C)C` [compound 229] (H-[NMeI]VLSLDVPIGLLQILLLQARARAAREQAK([AEEA-AEEA-γGlu-γGlu-C20 diacid])TN[Aib]EI[Nle]AEV-NH2), the EC50 in test [1] (setting [5]) is 6310 nM; in test [2] (setting [6]) it was 0.0794 nM.
For `CCCC[C@H](NC(=O)[C@@H](NC(=O)[C@H](CCC(=O)O)NC(=O)[C@H](C)NC(=O)[C@H](CC(N)=O)NC(=O)[C@@H](NC(=O)[C@H](CCCCNC(=O)COCCOCCNC(=O)COCCOCCNC(=O)CC[C@H](NC(=O)CC[C@H](NC(=O)CCCCCCCCCCCCCCCCCCC(=O)O)C(=O)O)C(=O)O)NC(=O)[C@H](C)NC(=O)[C@H](CCC(N)=O)NC(=O)[C@H](CCC(=O)O)NC(=O)[C@H](CCCNC(=N)N)NC(=O)[C@H](C)NC(=O)[C@H](CCC(N)=O)NC(=O)[C@H](CCCNC(=N)N)NC(=O)[C@H](C)NC(=O)[C@H](CCCNC(=N)N)NC(=O)[C@H](C)NC(=O)[C@H](CCC(N)=O)NC(=O)[C@H](CCC(=O)O)NC(=O)[C@H](CC(C)C)NC(=O)[C@H](CC(C)C)NC(=O)[C@@H](NC(=O)[C@H](CCC(N)=O)NC(=O)[C@H](CC(C)C)NC(=O)[C@H](CC(C)C)NC(=O)CNC(=O)[C@@H](NC(=O)[C@@H]1CCCN1C(=O)C1(NC(=O)[C@H](CC(=O)O)NC(=O)[C@H](CC(C)C)NC(=O)[C@H](CO)NC(=O)[C@H](CC(C)C)NC(=O)[C@@H](NC(=O)[C@@H](N)[C@@H](C)CC)C(C)C)CCCC1)[C@@H](C)CC)[C@@H](C)CC)[C@@H](C)O)[C@@H](C)CC)C(=O)N[C@@H](C)C(=O)N[C@@H](CCC(=O)O)C(=O)N[C@H](C(N)=O)C(C)C` [compound 79] (H-IVLSLD[Ac5c]PIGLLQILLEQARARQAREQAK([AEEA-AEEA-γGlu-γGlu-C20 diacid])TNAEI[Nle]AEV-NH2), the EC50 in test [1] (setting [3]) is 2 nM; in test [2] (setting [4]), 0.251 nM.
